Measurements reported in BindingDB's records for doi:10.1021/jm00108a031 (Roche Research Center, 1991).

Key:
[1] = In vitro for platelet activating factor receptor antagonist activity in a binding assay using washed whole dog platelets.
[2] = Compound tested in vitro for Platelet activating factor receptor antagonist activity in a binding assay using washed whole dog platelets

Compound: Cc1nnc2n1-c1sc(CCc3ccc4c(c3)CCC4)cc1C(c1ccccc1Cl)=NC2
- IC50 [1]: 20 nM

Compound: Cc1nnc2n1-c1sc(CCc3ccc(CC(C)C)cc3)cc1C(c1ccccc1Cl)=NC2
- IC50 [1]: 30 nM

Compound: Cc1nnc2n1-c1sc(C#Cc3ccc4c(c3)CCC4)cc1C(c1ccccc1Cl)=NC2
- IC50 [1]: 380 nM

Compound: Cc1nnc2n1-c1sc(C#Cc3cccc4ccccc34)cc1C(c1ccccc1Cl)=NC2
- IC50 [2]: 150 nM

Compound: Cc1nnc2n1-c1sc(-c3nn[nH]c3C(=O)N3CCOCC3)cc1C(c1ccccc1Cl)=NC2
- IC50 [1]: 1000 nM

Compound: Cc1nnc2n1-c1sc(/C=C\c3ccc(CC(C)C)cc3)cc1C(c1ccccc1Cl)=NC2
- IC50 [1]: 80 nM

Compound: Cc1nnc2n1-c1sc(C#CCO)cc1C(c1ccccc1Cl)=NC2
- IC50 [1]: 180 nM

Compound: Cc1nnc2n1-c1sc(-c3cc(=O)[nH][nH]3)cc1C(c1ccccc1Cl)=NC2
- IC50 [1]: 1000 nM

Compound: Cc1nnc2n1-c1sc(/C=C\c3ccc4c(c3)CCC4)cc1C(c1ccccc1Cl)=NC2
- IC50 [1]: 110 nM

Compound: Cc1nnc2n1-c1sc(C#Cc3ccc(-c4ccccn4)s3)cc1C(c1ccccc1Cl)=NC2
- IC50 [1]: 60 nM

Compound: CCCCc1ccc(/C=C\c2cc3c(s2)-n2c(C)nnc2CN=C3c2ccccc2Cl)cc1
- IC50 [1]: 10 nM

Compound: Cc1nnc2n1-c1sc(/C=C\c3ccccn3)cc1C(c1ccccc1Cl)=NC2
- IC50 [2]: 400 nM

Compound: Cc1nnc2n1-c1sc(CCc3ccc4c(c3)CCO4)cc1C(c1ccccc1Cl)=NC2
- IC50 [1]: 20 nM

Compound: Cc1nnc2n1-c1sc(C#CC(=O)N3CCOCC3)cc1C(c1ccccc1Cl)=NC2
- IC50 [2]: 260 nM

Compound: CCCCc1ccc(CCc2cc3c(s2)-n2c(C)nnc2CN=C3c2ccccc2Cl)cc1
- IC50 [1]: 10 nM

Compound: Cc1cc(C#Cc2cc3c(s2)-n2c(C)nnc2CN=C3c2ccccc2Cl)cc2c1OC(C)(C)C2
- IC50 [1]: 400 nM

Compound: Cc1nnc2n1-c1sc(CCc3ccc(C4CCCCC4)cc3)cc1C(c1ccccc1Cl)=NC2
- IC50 [1]: 35 nM

Compound: CCCCc1ccc(C#Cc2cc3c(s2)-n2c(C)nnc2CN=C3c2ccccc2Cl)cc1
- IC50 [1]: 650 nM

Compound: Cc1nnc2n1-c1sc(C#Cc3ccc(CC(C)C)cc3)cc1C(c1ccccc1Cl)=NC2
- IC50 [2]: 100 nM

Compound: Cc1nnc2n1-c1sc(CCc3ccc(-c4ccccn4)s3)cc1C(c1ccccc1Cl)=NC2
- IC50 [1]: 8 nM

Compound: Cc1cc(CCc2cc3c(s2)-n2c(C)nnc2CN=C3c2ccccc2Cl)cc2c1OC(C)(C)C2
- IC50 [1]: 400 nM

Compound: Cc1nnc2n1-c1sc(C#Cc3ccc(C4CCCCC4)cc3)cc1C(c1ccccc1Cl)=NC2
- IC50 [1]: 300 nM

Compound: C#Cc1cc2c(s1)-n1c(C)nnc1CN=C2c1ccccc1Cl
- IC50 [1]: 10 nM

Compound: Cc1nnc2n1-c1sc(C#C[Si](C)(C)C)cc1C(c1ccccc1Cl)=NC2
- IC50 [1]: 20 nM

Compound: Cc1nnc2n1-c1sc(C#Cc3ccccc3)cc1C(c1ccccc1Cl)=NC2
- IC50 [2]: 100 nM

Compound: Cc1nnc2n1-c1sc(CCc3ccc(-n4ccnc4)cc3)cc1C(c1ccccc1Cl)=NC2
- IC50 [1]: 100 nM

Compound: Cc1nnc2n1-c1sc(/C=C\c3ccc(C4CCCCC4)cc3)cc1C(c1ccccc1Cl)=NC2
- IC50 [1]: 120 nM

Compound: Cc1nnc2n1-c1sc(/C=C\C(=O)N3CCOCC3)cc1C(c1ccccc1Cl)=NC2
- IC50 [1]: 180 nM

Compound: Cc1nnc2n1-c1sc(C(CC(=O)N3CCOCC3)N=N)cc1C(c1ccccc1Cl)=NC2 (configuration not stated)
- IC50 [1]: 420 nM

Compound: Cc1nnc2n1-c1sc(C#Cc3ccccn3)cc1C(c1ccccc1Cl)=NC2
- IC50 [1]: 250 nM

Compound: Cc1nnc2n1-c1sc(C#Cc3ccc4c(c3)CCO4)cc1C(c1ccccc1Cl)=NC2
- IC50 [1]: 420 nM

Compound: Cc1nnc2n1-c1sc(Br)cc1C(c1ccccc1Cl)=NC2 [2-Bromo-4-(2-chloro-phenyl)-9-methyl-6H-1-thia-5,7,8,9a-tetraaza-cyclopenta[e]azulene]
- IC50 [1]: 300 nM
